The values that follow come from patent US20100022559A1, “BISOXIMES AS FUNGICIDES” (BAYER CROPSCIENCE AG, priority 2006, published 2010).

Like-named read-outs stand apart in the source and are kept apart here.

The series can be described thus: logP determination by HPLC on a reversed-phase column (C 18), EEC Directive 79/831 Annex V.A8. The series is classed as physicochemical. Particulars: for chromatographic logP: HCO2H, HPLC reversed-phase column (C 18), 43° C., read-out: logP (HCO2H). The protocol: The stated logP values were determined in accordance with EEC Directive 79/831 Annex V.A8 by HPLC (high performance liquid chromatography) on a reversed-phase column (C 18). Temperature: 43° C.

Where [1] appears, read: reversed-phase HPLC column (C 18).
Setting [2] is: method marker [a] (footnote not shown), isomer A / isomer B / isomer mixture as noted in the cell.
[3] abbreviates: method marker [b], isomer A / isomer B / isomer mixture as noted in the cell.

Consider `CCCC(=NOCC(C)CON=C(C)c1cccc(C)n1)c1ncccc1C` (single isomer, unassigned) [compound 548], for which the logP (method marked [b] in Table 1) is 3.85^[b] (isomer A).

Take `CCCC(=NOCC(C)CON=C(C)c1cccc(C)n1)c1ncccc1C` (single isomer, unassigned) [compound 549]: under “method marked [b] in Table 1”, the logP was 4.68^[b] (isomer B).

Turning to `Cc1cccc(C(=NOCC(C)CON=C(c2ccccc2)c2cccc(C)n2)c2ccccc2)n1` (single isomer, unassigned) [compound 661], the logP (method marked [a] in Table 1) was 4.10^[a] (isomer A).

For the compound `C=C(CON=Cc1cccc(C)n1)CON=Cc1cccc(C)n1` (single isomer, unassigned) [compound 662], the logP (method marked [b] in Table 1) was 2.16^[b] (isomer B).

`C=C(CON=Cc1cccc(C)n1)CON=Cc1cccc(C)n1` (single isomer, unassigned) [compound 664]: for the setting “method marked [b] in Table 1”, the logP was 2.13^[b] (isomer A).

With `CCC(=NOCC(C)CON=C(CC)c1cc(C)cc(C)n1)c1cc(C)cc(C)n1` (single isomer, unassigned) [compound 691], the logP (method marked [a] in Table 1) is 2.75^[a] (isomer A).

As for `CCC(CON=C(C)c1nc(C)ccc1C)CON=C(C)c1nc(C)ccc1C` (single isomer, unassigned) [compound 750], the logP (method marked [b] in Table 1) was 2.57^[b] and the logP (method marked [c] in Table 1) is 4.46^[c].

On to `CCC(CON=C(C)c1nc(C)ccc1C)CON=C(C)c1nc(C)ccc1C` (single isomer, unassigned) [compound 751], for which the logP (method marked [b] in Table 1) was 3.19^[b] and the logP (method marked [c] in Table 1) was 5.54^[c].

For the compound `CC(=NOCC(CON=C(C)c1nc(C)ccc1C)C(C)C)c1nc(C)ccc1C` (single isomer, unassigned) [compound 752], the logP runs as follows: (method marked [b] in Table 1) 2.89^[b]; (method marked [c] in Table 1) 4.85^[c].

Consider `CC(=NOCC(CON=C(C)c1nc(C)ccc1C)c1ccccc1)c1nc(C)ccc1C` (single isomer, unassigned) [compound 754], for which the logP is 2.91^[b] (method marked [b] in Table 1) and 4.59^[c] (method marked [c] in Table 1).

As to `CC(=NOCC(CON=C(C)c1nc(C)ccc1C)c1ccccc1)c1nc(C)ccc1C` (single isomer, unassigned) [compound 755], the logP is, setting by setting: (method marked [b] in Table 1) 3.62^[b]; (method marked [c] in Table 1) 5.45^[c].

Regarding `CC(=NOCC(CON=C(C)c1nc(C)ccc1C)C(C)(C)C)c1nc(C)ccc1C` (single isomer, unassigned) [compound 756], the logP runs as follows: (method marked [b] in Table 1) 3.22^[b]; (method marked [c] in Table 1) 5.20^[c].

With `CC(=NOCC(CON=C(C)c1nc(C)ccc1C)C(C)(C)C)c1nc(C)ccc1C` (single isomer, unassigned) [compound 757], the logP (method marked [b] in Table 1) was 5.09^[b] and the logP (method marked [c] in Table 1) is 6.38^[c].

Consider `CC(=NOCCC(C)ON=C(C)c1nc(C)ccc1C)c1nc(C)ccc1C` (single isomer, unassigned) [compound 758], for which the logP reads like this: (method marked [b] in Table 1) 2.13^[b]; (method marked [c] in Table 1) 4.03^[c].

Consider `CC(=NOCCC(C)ON=C(C)c1nc(C)ccc1C)c1nc(C)ccc1C` (single isomer, unassigned) [compound 759], for which the logP (method marked [b] in Table 1) is 3.12^[b] and the logP (method marked [c] in Table 1) was 5.02^[c].

On to `CC(=NOCC1(CON=C(C)c2nc(C)ccc2C)CCC1)c1nc(C)ccc1C` (single isomer, unassigned) [compound 760], for which the logP was 4.72^[c] (method marked [c] in Table 1) and 2.72^[b] (value marked [b]).

`CC(=NOCC1(CON=C(C)c2nc(C)ccc2C)CCC1)c1nc(C)ccc1C` (single isomer, unassigned) [compound 761]: the logP (value marked [b]) was 3.77^[b] and the logP (value marked [c]) is 5.84^[c].

As for `CC(=NOCC1(CON=C(C)c2nc(C)ccc2C)CCCC1)c1nc(C)ccc1C` (single isomer, unassigned) [compound 762], the logP (value marked [b]) was 3.04^[b] and the logP (value marked [c]) was 5.14^[c].

On to `CC(=NOCC1(CON=C(C)c2nc(C)ccc2C)CC1)c1nc(C)ccc1C` (single isomer, unassigned) [compound 764], for which the logP (value marked [b]) is 2.17^[b] and the logP (value marked [c]) is 4.00^[c].

For `CC(=NOCC1(CON=C(C)c2nc(C)ccc2C)CC1)c1nc(C)ccc1C` (single isomer, unassigned) [compound 765], the logP was 3.15^[b] (value marked [b]) and 4.95^[c] (value marked [c]).

With `CC(=NOC/C=C/CON=C(C)c1nc(C)c(C)s1)c1nc(C)c(C)s1` (single isomer, unassigned) [compound 766], the logP (value marked [b]) is 5.08^[b] (isomer A).

On to `CC(=NOC/C=C/CON=C(C)c1nc(C)c(C)s1)c1nc(C)c(C)s1` (single isomer, unassigned) [compound 767], for which the logP (value marked [b]) is 4.92^[b] (isomer B).

`COCc1nc(C(N)=NOC/C=C/CON=C(N)c2nc(COC)c(C)c(COC)n2)nc(COC)c1C` (single isomer, unassigned) [compound 768]: the logP (value marked [b]) was 1.68^[b] (isomer A).

`COCc1nc(C(N)=NOC/C=C/CON=C(N)c2nc(COC)c(C)c(COC)n2)nc(COC)c1C` (single isomer, unassigned) [compound 769]: under “value marked [b]”, the logP is 1.75^[b] (isomer B).

For `Cc1cc(C)nc(C(N)=NOC/C=C/CON=C(N)c2cc(C)cc(C)n2)c1` (single isomer, unassigned) [compound 770], the logP (value marked [b]) was 2.55^[b] (isomer B).

Regarding `Cc1cc(C)nc(C(N)=NOC/C=C/CON=C(N)c2cc(C)cc(C)n2)c1` (single isomer, unassigned) [compound 771], for the setting “value marked [b]”, the logP was 2.70^[b] (isomer A).

In the case of `CC(=NOc1nc(Cl)nc(ON=C(C)c2cccc(C)n2)c1Cl)c1cccc(C)n1` (single isomer, unassigned) [compound 779], the logP reads like this: (value marked [b]) 4.62^[b]; (value marked [c]) 5.09^[c].

In the case of `CC(=NOc1nc(Cl)nc(ON=C(C)c2cccc(C)n2)c1Cl)c1cccc(C)n1` (single isomer, unassigned) [compound 780], the logP by setting is: (value marked [b]) 4.22^[b]; (value marked [c]) 4.88^[c].

For the compound `CC(=NOCC(C)(C)CON=C(c1ccccc1)c1cccc(C)n1)c1cccc(C)n1` (single isomer, unassigned) [compound 879], the logP is 4.61^[b] (value marked [b]) and 4.52^[c] (value marked [c]).

Turning to `C/C(=N\OCC(C)CO/N=C(\C)c1cccc(C)n1)c1cccc(C)n1` [1-(6-methylpyridin-2-yl)ethanone O,O′-(2-methylpropane-1,3-diyl)oxime], the chromatographic logP under setting [1] was found to be 2.31.

With `C/C(=N\OCC1(CO/N=C(\C)c2ccc(C)c(C)n2)CC1)c1cc(C)cc(C)n1` [(1E)-1-(4,6-dimethylpyridin-2-yl)ethanone O-({1-[({[(1E)-1-(5,6-dimethylpyridin-2-yl)ethylidene]amino}oxy)methyl]cyclopropyl}methyl)oxime], under setting [1], the chromatographic logP worked out at 2.61.

Consider `C/C(=N\OC[Si](C)(C)CO/N=C(\C)c1cccc(C)n1)c1cccc(C)n1` [(1E,1E′)-1-(6-methylpyridin-2-yl)ethanone O,O′-[(dimethylsilanediyl)bis(methylene)]oxime], for which the chromatographic logP amounted to 4.5.

For the compound `CCC1=NOC(CO/N=C(\C)c2cccc(C)n2)(CO/N=C(\C)c2cccc(C)n2)C1` [(1E,1′E)-1-(6-methylpyridin-2-yl)ethanone O,O′-[(3-ethyl-4,5-dihydroisoxazole-5,5-diyl)bis(methylene)]oxime], under setting [1], the chromatographic logP was 2.68.

On to `CC(=NOCC(C)(C)CO/N=C(\C)c1cccc(C)n1)c1cc(C)cc(C)n1` [(1E/Z)-1-(4,6-dimethylpyridin-2-yl)ethanone O-[2,2-dimethyl-3-({[(1E)-1-(6-methylpyridin-2-yl)ethylidene]amino}oxy)propyl]oxime], for which the chromatographic logP under setting [1] is 3.33.

On to `C/C(=N\OCC(CO/N=C(\C)c1cccc(C)n1)=NO)c1cccc(C)n1` [(2E,9E)-2,10-bis(6-methylpyridin-2-yl)-4,8-dioxa-3,9-diazaundeca-2,9-dien-6-one oxime], for which the chromatographic logP under setting [1] came out at 1.91.

`C/C(=N\OCC(=O)CO/N=C(\C)c1cccc(C)n1)c1cccc(C)n1` [(2E,9E)-2,10-bis(6-methylpyridin-2-yl)-4,8-dioxa-3,9-diazaundeca-2,9-dien-6-one]: the chromatographic logP under setting [1] is 2.2.

With `CC(=NOCC(C)CON=C(C)c1cccc(C)n1)c1cccc(C)n1` (stereo not shown) [Compound 1], the logP by setting is: under setting [2], 2.31^[a]; (method marker [c] (footnote not shown)) 5.44^[c].

Consider `C=C(CON=C(C)c1cccc(C)n1)CON=C(C)c1cccc(C)n1` [Compound 9], for which, under setting [3], the logP was 3.33^[b].

As to `Cc1cc(C)nc(/C(N)=N/OCC(C)CO/N=C(\N)c2nc(C)cc(C)n2)n1` (stereo not shown) [Compound 10], under setting [3], the logP is 1.81^[b].

Take `CC(=NOCCCCCON=C(C)c1cccc(C)n1)c1cccc(C)n1` [Compound 11]: the logP under setting [3] was 3.85^[b].

Take `CC(=NOCC(C)(O)CON=C(C)c1cccc(C)n1)c1cccc(C)n1` (stereo not shown) [Compound 12]: under setting [2], the logP is 1.66^[a].

Regarding `CC(=NOCCCON=C(C)c1cccc(C)n1)c1cccc(C)n1` [Compound 14], under setting [2], the logP is 2.66^[a].

Turning to `CC(=NOCC1(CON=C(C)c2cccc(C)n2)CC1)c1cccc(C)n1` [Compound 15], the logP under setting [3] is 3.44^[b].

On to `C=C(CON=C(C)c1cccc(C)n1)CON=C(C)c1nc(C)c(C)s1` [Compound 18], for which, under setting [3], the logP is 4.41^[b].

Consider `C=C(CON=C(C)c1cccc(C)n1)CON=C(N)c1cccc(C)n1` [Compound 23], for which the logP under setting [3] is 2.75^[b].

`C=C(CO/N=C(\N)c1csc(C)n1)CO/N=C(\N)c1csc(C)n1` [Compound 27]: the logP under setting [3] was 3.19^[b].

On to `CC(=NOCCON=C(C)c1cccnc1)c1cccnc1` [Compound 32], for which the logP under setting [3] was 1.32^[b].

On to `C=C(CON=C(C)c1ccc(Cl)nc1)CON=C(C)c1ccc(Cl)nc1` [Compound 57], for which the logP under setting [3] was 4.38^[b].

Turning to `CC(=NOCON=C(C)c1ccccn1)c1ccccn1` [Compound 59], under setting [3], the logP was 2.23^[b].
